Results reported in ChEMBL document CHEMBL5724914, “Linking interpersonal differences in gut microbiota composition and drug biotransformation activity” (2024).

Key:
[1] = human gut metagenome, 24 h, 2 µM
[2] = human gut metagenome, 24 h, 2 µM; remark: listed apart in the source
[3] = human gut metagenome, 24 h, 2 µM; remark: listed apart in the source
[4] = (§1) The drug is tested on WLS-027 corresponding to human gut metagenome with ENA study accession number: PRJEB37062 and ENA sample accession number: ERS12561744 for biotransformation under anaerobic condition. The drug concentrations were measured over 9 timepoints collected between 0 and 24 hours of incubation by liquid-chromatography-coupled mass spectrometry (LC–MS); settings: 2 µM
[5] = human gut metagenome, 24 h, 2 µM; remark: listed apart in the source
[6] = human gut metagenome, 24 h, 2 µM; remark: listed apart in the source
[7] = human gut metagenome, 24 h, 2 µM; remark: listed apart in the source
[8] = as §1, with “WLS-090” for “WLS-027”, “ERS12561753” for “ERS12561744”; settings: 2 µM
[9] = as §1, with “WLS-006” for “WLS-027”, “ERS12561741” for “ERS12561744”; settings: 2 µM
[10] = human gut metagenome, 24 h, 2 µM; remark: listed apart in the source
[11] = as §1, with “Z-002” for “WLS-027”, “rabbit” for “human”, “ERS12561802” for “ERS12561744”; settings: 2 µM
[12] = human gut metagenome, 24 h, 2 µM; remark: listed apart in the source
[13] = human gut metagenome, 24 h, 2 µM; remark: listed apart in the source
[14] = as §1, with “Z-023” for “WLS-027”, “to” for “to human gut”, “ERS12561822” for “ERS12561744”; settings: 2 µM
[15] = as §1, with “Z-025” for “WLS-027”, “rabbit” for “human”, “ERS12561824” for “ERS12561744”; settings: 2 µM
[16] = as §1, with “Z-009” for “WLS-027”, “pig” for “human”, “ERS12561809” for “ERS12561744”; settings: 2 µM
[17] = as §1, with “Z-027” for “WLS-027”, “to” for “to human gut”, “ERS12561826” for “ERS12561744”; settings: 2 µM
[18] = as §1, with “Z-012” for “WLS-027”, “to” for “to human gut”, “ERS12561812” for “ERS12561744”; settings: 2 µM
[19] = as §1, with “Z-005” for “WLS-027”, “to” for “to human gut”, “ERS12561805” for “ERS12561744”; settings: 2 µM
Further: call rule not given here.

COC(=O)C1=C(C)NC(C)=C(C(=O)OC(C)C)C1c1cccc2nonc12 (configuration not stated) [ISRADIPINE]
Bacterial Biotransformation [1]: Compound NOT metabolized | Bacterial Biotransformation [2]: Compound metabolized | Bacterial Biotransformation [3]: Compound metabolized | Bacterial Biotransformation [4]: Compound metabolized | Bacterial Biotransformation [5]: Compound NOT metabolized | Bacterial Biotransformation [6]: Compound NOT metabolized | Bacterial Biotransformation [7]: Compound metabolized | Bacterial Biotransformation [8]: Compound metabolized | Bacterial Biotransformation [9]: Compound NOT metabolized | Bacterial Biotransformation [10]: Compound metabolized | Bacterial Biotransformation [11]: Compound metabolized | Bacterial Biotransformation [12]: Compound metabolized | Bacterial Biotransformation [13]: Compound metabolized

CN(C(=O)CN(CCO)CC(=O)N(C)C(C)(C)Cc1ccccc1)C(C)(C)Cc1ccccc1 [OXETHAZAINE]
Bacterial Biotransformation [1]: Compound NOT metabolized | Bacterial Biotransformation [2]: Compound metabolized | Bacterial Biotransformation [3]: Compound metabolized | Bacterial Biotransformation [4]: Compound metabolized | Bacterial Biotransformation [5]: Compound NOT metabolized | Bacterial Biotransformation [6]: Compound metabolized | Bacterial Biotransformation [7]: Compound metabolized | Bacterial Biotransformation [8]: Compound metabolized | Bacterial Biotransformation [9]: Compound metabolized | Bacterial Biotransformation [10]: Compound metabolized | Bacterial Biotransformation [12]: Compound metabolized | Bacterial Biotransformation [13]: Compound metabolized

CN1CCN(CC/C=C2/c3ccccc3Sc3ccc(S(=O)(=O)N(C)C)cc32)CC1 [THIOTHIXENE]
Bacterial Biotransformation [1]: Compound NOT metabolized | Bacterial Biotransformation [2]: Compound metabolized | Bacterial Biotransformation [3]: Compound metabolized | Bacterial Biotransformation [4]: Compound metabolized | Bacterial Biotransformation [5]: Compound metabolized | Bacterial Biotransformation [6]: Compound metabolized | Bacterial Biotransformation [7]: Compound metabolized | Bacterial Biotransformation [8]: Compound metabolized | Bacterial Biotransformation [9]: Compound metabolized | Bacterial Biotransformation [10]: Compound NOT metabolized | Bacterial Biotransformation [12]: Compound metabolized | Bacterial Biotransformation [13]: Compound metabolized

CN1C(=O)CC(C)(c2ccccc2)C1=O (configuration not stated) [METHSUXIMIDE]
Bacterial Biotransformation [14]: Compound NOT metabolized | Bacterial Biotransformation [15]: Compound NOT metabolized | Bacterial Biotransformation [1]: Compound NOT metabolized | Bacterial Biotransformation [16]: Compound NOT metabolized | Bacterial Biotransformation [2]: Compound NOT metabolized | Bacterial Biotransformation [3]: Compound NOT metabolized | Bacterial Biotransformation [4]: Compound NOT metabolized | Bacterial Biotransformation [5]: Compound NOT metabolized | Bacterial Biotransformation [6]: Compound metabolized | Bacterial Biotransformation [17]: Compound NOT metabolized | Bacterial Biotransformation [7]: Compound NOT metabolized | Bacterial Biotransformation [8]: Compound NOT metabolized | Bacterial Biotransformation [9]: Compound NOT metabolized | Bacterial Biotransformation [10]: Compound NOT metabolized | Bacterial Biotransformation [11]: Compound NOT metabolized | Bacterial Biotransformation [18]: Compound NOT metabolized | Bacterial Biotransformation [12]: Compound metabolized | Bacterial Biotransformation [19]: Compound NOT metabolized | Bacterial Biotransformation [13]: Compound NOT metabolized

CCC1(c2ccc(N)cc2)CCC(=O)NC1=O (configuration not stated) [AMINOGLUTETHIMIDE]
Bacterial Biotransformation [1]: Compound NOT metabolized | Bacterial Biotransformation [16]: Compound metabolized | Bacterial Biotransformation [2]: Compound NOT metabolized | Bacterial Biotransformation [3]: Compound NOT metabolized | Bacterial Biotransformation [4]: Compound NOT metabolized | Bacterial Biotransformation [5]: Compound NOT metabolized | Bacterial Biotransformation [6]: Compound NOT metabolized | Bacterial Biotransformation [7]: Compound NOT metabolized | Bacterial Biotransformation [8]: Compound NOT metabolized | Bacterial Biotransformation [9]: Compound NOT metabolized | Bacterial Biotransformation [10]: Compound NOT metabolized | Bacterial Biotransformation [11]: Compound NOT metabolized | Bacterial Biotransformation [18]: Compound NOT metabolized | Bacterial Biotransformation [12]: Compound NOT metabolized | Bacterial Biotransformation [19]: Compound NOT metabolized | Bacterial Biotransformation [13]: Compound NOT metabolized

OC(CCN1CCCCC1)(c1ccccc1)C1CC2C=CC1C2 (configuration not stated) [BIPERIDEN]
Bacterial Biotransformation [1]: Compound NOT metabolized | Bacterial Biotransformation [2]: Compound metabolized | Bacterial Biotransformation [3]: Compound NOT metabolized | Bacterial Biotransformation [4]: Compound NOT metabolized | Bacterial Biotransformation [5]: Compound metabolized | Bacterial Biotransformation [6]: Compound NOT metabolized | Bacterial Biotransformation [7]: Compound NOT metabolized | Bacterial Biotransformation [8]: Compound metabolized | Bacterial Biotransformation [9]: Compound metabolized | Bacterial Biotransformation [10]: Compound metabolized | Bacterial Biotransformation [12]: Compound metabolized | Bacterial Biotransformation [13]: Compound metabolized

CS(=O)(=O)O.O.O.O.O=C1Cc2cc(CCN3CCN(c4nsc5ccccc45)CC3)c(Cl)cc2N1 [ZIPRASIDONE MESYLATE]
Bacterial Biotransformation [1]: Compound metabolized | Bacterial Biotransformation [2]: Compound NOT metabolized | Bacterial Biotransformation [3]: Compound metabolized | Bacterial Biotransformation [4]: Compound metabolized | Bacterial Biotransformation [5]: Compound NOT metabolized | Bacterial Biotransformation [6]: Compound NOT metabolized | Bacterial Biotransformation [7]: Compound NOT metabolized | Bacterial Biotransformation [8]: Compound metabolized | Bacterial Biotransformation [9]: Compound metabolized | Bacterial Biotransformation [10]: Compound NOT metabolized | Bacterial Biotransformation [12]: Compound metabolized | Bacterial Biotransformation [13]: Compound NOT metabolized

CC(=O)O[C@]1(C(C)=O)CC[C@H]2[C@@H]3C=C(Cl)C4=CC(=O)[C@@H]5C[C@@H]5[C@]4(C)[C@H]3CC[C@@]21C [CYPROTERONE ACETATE]
Bacterial Biotransformation [14]: Compound metabolized | Bacterial Biotransformation [1]: Compound metabolized | Bacterial Biotransformation [16]: Compound metabolized | Bacterial Biotransformation [2]: Compound metabolized | Bacterial Biotransformation [3]: Compound metabolized | Bacterial Biotransformation [4]: Compound metabolized | Bacterial Biotransformation [5]: Compound NOT metabolized | Bacterial Biotransformation [6]: Compound metabolized | Bacterial Biotransformation [7]: Compound metabolized | Bacterial Biotransformation [8]: Compound metabolized | Bacterial Biotransformation [9]: Compound metabolized | Bacterial Biotransformation [10]: Compound metabolized | Bacterial Biotransformation [11]: Compound metabolized | Bacterial Biotransformation [12]: Compound metabolized | Bacterial Biotransformation [19]: Compound metabolized | Bacterial Biotransformation [13]: Compound metabolized

CN1C[C@H](C(=O)N[C@]2(C)O[C@@]3(O)[C@@H]4CCCN4C(=O)[C@H](Cc4ccccc4)N3C2=O)C=C2c3cccc4[nH]cc(c34)C[C@H]21.CN1C[C@H](C(=O)N[C@]2(C)O[C@@]3(O)[C@@H]4CCCN4C(=O)[C@H](Cc4ccccc4)N3C2=O)C=C2c3cccc4[nH]cc(c34)C[C@H]21.O=C(O)C(O)C(O)C(=O)O [ERGOTAMINE TARTRATE]
Bacterial Biotransformation [1]: Compound NOT metabolized | Bacterial Biotransformation [2]: Compound metabolized | Bacterial Biotransformation [3]: Compound metabolized | Bacterial Biotransformation [4]: Compound metabolized | Bacterial Biotransformation [5]: Compound NOT metabolized | Bacterial Biotransformation [6]: Compound metabolized | Bacterial Biotransformation [7]: Compound NOT metabolized | Bacterial Biotransformation [8]: Compound metabolized | Bacterial Biotransformation [9]: Compound metabolized | Bacterial Biotransformation [10]: Compound NOT metabolized | Bacterial Biotransformation [19]: Compound NOT metabolized | Bacterial Biotransformation [13]: Compound metabolized

COc1ccccc1N1CCN(CC(O)COc2cccc3ccccc23)CC1 (configuration not stated) [NAFTOPIDIL]
Bacterial Biotransformation [14]: Compound metabolized | Bacterial Biotransformation [1]: Compound NOT metabolized | Bacterial Biotransformation [16]: Compound NOT metabolized | Bacterial Biotransformation [2]: Compound NOT metabolized | Bacterial Biotransformation [3]: Compound NOT metabolized | Bacterial Biotransformation [4]: Compound NOT metabolized | Bacterial Biotransformation [5]: Compound NOT metabolized | Bacterial Biotransformation [6]: Compound NOT metabolized | Bacterial Biotransformation [7]: Compound NOT metabolized | Bacterial Biotransformation [8]: Compound NOT metabolized | Bacterial Biotransformation [9]: Compound NOT metabolized | Bacterial Biotransformation [10]: Compound NOT metabolized | Bacterial Biotransformation [11]: Compound NOT metabolized | Bacterial Biotransformation [18]: Compound NOT metabolized | Bacterial Biotransformation [12]: Compound NOT metabolized | Bacterial Biotransformation [19]: Compound NOT metabolized | Bacterial Biotransformation [13]: Compound NOT metabolized

Cc1nc2n(c(=O)c1CCN1CCC(c3noc4cc(F)ccc34)CC1)CCCC2O (configuration not stated) [PALIPERIDONE]
Bacterial Biotransformation [14]: Compound metabolized | Bacterial Biotransformation [1]: Compound metabolized | Bacterial Biotransformation [16]: Compound metabolized | Bacterial Biotransformation [2]: Compound metabolized | Bacterial Biotransformation [3]: Compound metabolized | Bacterial Biotransformation [4]: Compound metabolized | Bacterial Biotransformation [5]: Compound NOT metabolized | Bacterial Biotransformation [6]: Compound metabolized | Bacterial Biotransformation [17]: Compound NOT metabolized | Bacterial Biotransformation [7]: Compound metabolized | Bacterial Biotransformation [8]: Compound metabolized | Bacterial Biotransformation [9]: Compound metabolized | Bacterial Biotransformation [10]: Compound metabolized | Bacterial Biotransformation [12]: Compound metabolized | Bacterial Biotransformation [19]: Compound NOT metabolized | Bacterial Biotransformation [13]: Compound metabolized
